{"source": "patent US20130143897A1", "about": "“ORAL CONTROLLED RELEASE PHARMACEUTICAL COMPOSITIONS OF BLONANSERIN” (LUPIN LIMITED, priority 2010, published 2013)", "origin": "cited, not measured here", "key": {"serotonin (S2) receptors": {"target": "serotonin (S2) receptors (Homo sapiens, UniProt P28223)", "sequence (P28223 whole entry)": "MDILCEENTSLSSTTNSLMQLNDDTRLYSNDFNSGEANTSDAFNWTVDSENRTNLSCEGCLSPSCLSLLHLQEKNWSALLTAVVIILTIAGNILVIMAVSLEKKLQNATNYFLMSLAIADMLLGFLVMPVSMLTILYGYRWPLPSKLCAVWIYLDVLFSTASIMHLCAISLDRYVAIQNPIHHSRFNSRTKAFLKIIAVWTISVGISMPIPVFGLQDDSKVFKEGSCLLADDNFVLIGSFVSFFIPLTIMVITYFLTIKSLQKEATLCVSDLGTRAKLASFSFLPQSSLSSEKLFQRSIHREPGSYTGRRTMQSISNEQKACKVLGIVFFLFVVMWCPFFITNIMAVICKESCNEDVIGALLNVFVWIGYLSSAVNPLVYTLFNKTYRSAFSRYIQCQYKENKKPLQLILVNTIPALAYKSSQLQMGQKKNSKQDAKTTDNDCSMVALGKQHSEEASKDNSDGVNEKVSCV"}, "dopamine (D2) receptors": {"target": "dopamine (D2) receptors (Homo sapiens, UniProt P14416)", "sequence (P14416 whole entry)": "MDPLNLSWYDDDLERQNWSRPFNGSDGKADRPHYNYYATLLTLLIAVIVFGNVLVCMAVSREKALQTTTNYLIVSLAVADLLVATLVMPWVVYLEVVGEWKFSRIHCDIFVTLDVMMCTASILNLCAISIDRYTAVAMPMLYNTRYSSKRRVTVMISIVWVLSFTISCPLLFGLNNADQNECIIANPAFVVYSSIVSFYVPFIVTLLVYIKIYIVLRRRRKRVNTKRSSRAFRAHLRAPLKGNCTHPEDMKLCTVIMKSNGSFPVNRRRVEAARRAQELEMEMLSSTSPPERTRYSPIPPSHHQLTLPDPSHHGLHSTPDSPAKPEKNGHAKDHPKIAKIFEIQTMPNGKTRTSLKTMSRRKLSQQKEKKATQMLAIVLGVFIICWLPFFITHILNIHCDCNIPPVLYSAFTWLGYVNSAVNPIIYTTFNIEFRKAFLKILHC"}}}
{"smiles": "CCN1CCN(c2cc(-c3ccc(F)cc3)c3c(n2)CCCCCC3)CC1", "note": "[Blonanserin, 2-(4-Ethyl-1-piperazinyl)-4-(4-fluorophenyl)-5,6,7,8,9,10-hexahydrocycloocta[b]pyridine]", "values": [{"measurement": "solubility in water", "value": "poor"}, {"measurement": "binding property to serotonin (S2) receptors", "setting": "serotonin (S2) receptors", "value": "potent"}, {"measurement": "binding property to dopamine (D2) receptors", "setting": "dopamine (D2) receptors", "value": "potent"}]}
